Test results as given in US8198295B2, “Benzonaphthyridines” (Nycomed GmbH, priority 2002, dated 2012).
Structures can show the parent of a compound that is named as a salt. Where two headings read alike, the source gives them in different places.

Key:
[1] = target: T1, PDE3 (cGMP-inhibited), homogenates of human platelets (Homo sapiens, UniProt Q14432); test: Inhibition of PDE isoenzymes: PDE3; type: biochemical
T1 construct: from tissue; host or cells: homogenates of human platelets
Experimental: (§1) The PDE activity was determined according to Thompson et al. (Adv Cycl Nucl Res 10: 69-92, 1979) with some modifications (Bauer and Schwabe, Naunyn-Schmiedeberg's Arch Pharmacol 311: 193-198, 1980). The test samples contained 20 mM Tris (pH 7.4), 5 mM MgCl2, 0.5 μM CAMP or CGMP, [^3H]cAMP or [^3H]cGMP (about 30 000 cpm/sample), the PDE isoenzyme-specific additives described in greater detail below, the Indicated concentrations of inhibitor and an aliquot of the enzyme solution in a total sample volume of 200 μl. Dilution series of the compounds according to the invention were prepared in DMSO and further diluted in the samples [1:100 (v/v)], to give the desired end concentration of the inhibitors at a DMSO concentration of 1% (vN), which for its part has only a minute effect on PDE activity.
(§2) After preincubation at 37° C. for 5 minutes, the reaction was started by addition of the substrate (CAMP or cGMP). The samples were incubated at 37° C. for a further 15 min. The reaction was terminated by addition of 50 μl 0.2 N HCl. After cooling on ice for 10 minutes and addition of 25 μg 5′-nucleotidase (snake venom from Crotalus atrox), the mixture was again incubated at 37° C. for 10 min and the samples were then applied to QAE Sephadex A-25 columns (sample volume 1 ml). The columns were eluted with 2 ml of 30 mM ammonium formate (pH 6.0). The radioactivity of the eluate was measured and corrected by the corresponding blank values (measured in the presence of denatured protein); the blank values were less than 5% of the total radioactivity. In no case did the proportion of hydrolyzed nucleotide exceed 30% of the original substrate concentration.
PDE3 (cGMP-inhibited) was investigated in homogenates of human platelets (see Schudt et al., Biochem Pharmacol 1991: 42, 153-162) using CAMP or cGMP as substrate.
(§3) The IC50 values were determined from the concentration-inhibition curves by nonlinear regression.

[2] = target: PDE4 (cAMP-specific), cytosol of human polymorphonuclear leukocytes (PMNL); test: Inhibition of PDE isoenzymes: PDE4; type: biochemical; settings: cAMP as substrate, motapizone (1 μM) present
Experimental: as §1, §2
PDE4 (cAMP-specific) was investigated in the cytosol of human polymorphonuclear leukocytes (PMNL) [isolated from leukocyte concentrates, see Schudt et al., Arch Pharmacol 1991: 344, 682-690] using CAMP as substrate. The PDE3 inhibitor motapizone (1 μM) was used to suppress the PDE3 activity emanating from contaminated platelets.
as §3

[3] = homogenates of human platelets, cAMP or cGMP as substrate, read-out: PDE3 [−log IC50, mol/l] (converted)

T1 sequence (Q14432 whole entry): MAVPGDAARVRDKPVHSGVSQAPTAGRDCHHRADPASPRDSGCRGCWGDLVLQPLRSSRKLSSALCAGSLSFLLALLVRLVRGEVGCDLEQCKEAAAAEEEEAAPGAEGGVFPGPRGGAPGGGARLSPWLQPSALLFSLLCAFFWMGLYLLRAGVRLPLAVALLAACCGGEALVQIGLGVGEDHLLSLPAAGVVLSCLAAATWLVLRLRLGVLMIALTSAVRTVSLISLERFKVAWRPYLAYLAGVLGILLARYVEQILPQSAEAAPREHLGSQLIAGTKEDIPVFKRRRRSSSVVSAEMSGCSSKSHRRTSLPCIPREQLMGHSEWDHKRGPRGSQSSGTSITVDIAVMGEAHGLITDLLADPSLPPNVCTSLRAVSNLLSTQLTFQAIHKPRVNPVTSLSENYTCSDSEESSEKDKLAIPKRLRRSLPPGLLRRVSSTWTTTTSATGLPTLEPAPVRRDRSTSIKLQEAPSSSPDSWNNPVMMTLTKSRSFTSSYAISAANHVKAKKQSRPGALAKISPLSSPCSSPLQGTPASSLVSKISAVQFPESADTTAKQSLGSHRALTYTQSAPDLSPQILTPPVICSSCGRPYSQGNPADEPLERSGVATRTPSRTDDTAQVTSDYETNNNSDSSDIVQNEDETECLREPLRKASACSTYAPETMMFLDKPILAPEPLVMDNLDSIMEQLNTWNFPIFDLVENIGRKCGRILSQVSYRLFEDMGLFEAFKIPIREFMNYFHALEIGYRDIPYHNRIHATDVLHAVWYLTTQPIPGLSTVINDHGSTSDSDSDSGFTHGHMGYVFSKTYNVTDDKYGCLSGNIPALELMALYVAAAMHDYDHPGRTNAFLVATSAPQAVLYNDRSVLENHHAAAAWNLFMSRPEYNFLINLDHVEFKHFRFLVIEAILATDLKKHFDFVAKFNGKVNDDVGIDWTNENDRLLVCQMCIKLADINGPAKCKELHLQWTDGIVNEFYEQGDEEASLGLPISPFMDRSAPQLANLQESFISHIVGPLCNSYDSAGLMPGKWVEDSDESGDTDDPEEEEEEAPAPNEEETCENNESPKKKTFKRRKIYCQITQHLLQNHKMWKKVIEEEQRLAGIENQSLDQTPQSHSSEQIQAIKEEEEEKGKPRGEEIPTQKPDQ

Row | SMILES | IC50 [1, 3] | PDE4 [−log IC50, mol/l] [2] | IC50 [1]
1 | CCOc1cc2c(cc1OC)C(c1ccc(C(=O)N(C(C)C)[C@@H](C)COC(=O)c3cc(OC)cc(OC)c3)cc1)=N[C@@H]1CCN(C)C[C@H]21 [Compound 4] | 39.8 nM | 9.3 −log IC50, mol/l | –
2 | CCOc1cc2c(cc1OC)C(c1ccc(C(=O)N(C(C)C)C(C)CCOC(=O)Cc3ccc(OC)c(OC)c3)cc1)=N[C@@H]1CCN(C)C[C@H]21 (stereo partly drawn) [Compound 8, (3.4-Dimethoxy-phenyl)-acetic acid 3-({1-[4-((4aR,10bS)-9-ethoxy-8-methoxy-2-methyl-1,2,3,4,4a.10b-hexahydro-benzo[c][1,6]naphthyridin-6-yl)-phenyl]-methanoyl}-isopropyl-amino)-butyl ester] | 50.1 nM | 9.6 −log IC50, mol/l | –
3 | CCOc1cc2c(cc1OC)C(c1ccc(C(=O)N(C(C)C)[C@@H](C)COC(C)=O)cc1)=N[C@@H]1CCN(C)C[C@H]21 [Compound 5, Acetic acid (S-2-({1-[4-((4aR,10bS)-9-ethoxy-8-methoxy-2-methyl-1,2,3,4,4a,10b-hexahydro-benzo[c][1,6]naphthyyrdin-6-yl)-phenyl]-methanoyl}-isopropyl-amino)-propyl esterdihydrochloride] | 79.4 nM | 9.2 −log IC50, mol/l | –
4 | CCOc1cc2c(cc1OC)C(c1ccc(C(=O)N(C(C)C)[C@H](C)CO)cc1)=N[C@@H]1CCN(C)C[C@H]21 [Compound 12] | 79.4 nM | 8.8 −log IC50, mol/l | –
5 | CCOc1cc2c(cc1OC)C(c1ccc(C(=O)N(C(C)C)[C@@H](C)COC(=O)Cc3ccccc3)cc1)=N[C@@H]1CCN(C)C[C@H]21 [Compound 1, Phenyl-acetic acid (S)-2-({1-[4-((4aR,10bS)-9-ethoxy-8-methoxy-2-methyl-1,2,3,4a,10b-hexahydro-benzo[c][1,6]naphthyridin-6-yl)-phenyl]-methanoyl}-isopropyl-amino)-propyl ester] | – | 9.8 −log IC50, mol/l | 50.1 nM
6 | CCOc1cc2c(cc1OC)C(c1ccc(C(=O)N(C(C)C)[C@@H](C)CO)cc1)=N[C@@H]1CCN(C)C[C@H]21 [Compound 11] | 79.4 nM | 8.9 −log IC50, mol/l | –
7 | CCOc1cc2c(cc1OC)C(c1ccc(C(=O)N(C(C)C)[C@@H](C)COC(=O)c3ccccc3)cc1)=N[C@@H]1CCN(C)C[C@H]21 [Compound 2] | 25.1 nM | 9 −log IC50, mol/l | –
8 | CCOc1cc2c(cc1OC)C(c1ccc(C(=O)N(C(C)C)C(C)CCOC(=O)c3ccccc3)cc1)=N[C@@H]1CCN(C)C[C@H]21 (stereo partly drawn) [Compound 6, Benzoic acid 3-({1-[4-((4aR,10bS)-9-ethoxy-8-methoxy-2-methyl-1,2,3,4,4a,10b-hexahydro-benzo[c][1,6]naphthyridin-6-yl)-phenyl]-methanoyl}-isopropyl-amino)-butyl ester] | 100 nM | 9.2 −log IC50, mol/l | –
9 | CCOc1cc2c(cc1OC)C(c1ccc(C(=O)N(C(C)C)C(C)CCOC(=O)Cc3ccccc3)cc1)=N[C@@H]1CCN(C)C[C@H]21 (stereo partly drawn) [Compound 7, Phenyl-acetic acid 3-({1-[4((4aR,10bS)-9-ethoxy-8-methoxy-2-methyl-1,2,3,4,4a,10b-hexahydro-benzo[c][1,6]naphthyridin-6-yl)-phenyl]-methanoyl}-isopropyl-amino)-butyl ester] | – | 9.6 −log IC50, mol/l | 31.6 nM
10 | CCOc1cc2c(cc1OC)C(c1ccc(C(=O)N(C(C)C)[C@@H](C)COC(=O)c3ccc(OC)c(OC)c3)cc1)=N[C@@H]1CCN(C)C[C@H]21 [Compound 3, 3,4-Dimethoxy-benzoic acid(S)2-({1-[4-((4aR,10bS)-9-ethoxy-8-methoxy-2-methyl-1,2,3,4,4a,10b-hexahdro-benzo[c][1,6]naphthyridin-6-yl)-phenyl]-methanoyl}-isopropyl-amino)-propyl ester] | 31.6 nM | 9.4 −log IC50, mol/l | –
